Laboratory results as given in patent publication US20250188068A1, “AMIDO CYCLOPROPYL DERIVATIVES AS LPA RECEPTOR INHIBITORS” (CHIESI FARMACEUTICI S.P.A., priority 2022, published 2025).

tested on: Caco-2 cells monolayers (human colon carcinoma cell line); assay: not given; conditions: Caco-2, 60 min, 10 μM, pH 7.4

SMILES	Passive Permeability
Cc1nc(-c2onc(C)c2NC(=O)O[C@H](C)c2ccccc2Cl)ccc1NC(=O)C1C(c2noc(=O)[nH]2)C1(F)F (stereo partly drawn) [Compound 42, (R)-1-(2-chlorophenyl)ethyl (5-(5-(2,2-difluoro-3-(5-oxo-4,5-dihydro-1,2,4-oxadiazol-3-yl)cyclopropane-1-carboxamido)-6-methylpyridin-2-yl)-3-methylisoxazol-4-yl)carbamate]	≤0.5 ×10⁻⁶ cm/s

molecular target: T1, human recombinant LPA1 expressed in CHO cells (Homo sapiens, UniProt Q92633); assay: FLIPR calcium mobilization assay, LPA1 antagonism in CHO-hLPA1 cells; assay type: cell-based; conditions: inhibition of LPA EC80 Ca2+ response, 30 min pre-incubation, range of activity
T1 construct: expressed in transfected cells; host or cells: CHO cells (CHO-hLPA1 cell line)
T1 sequence (Q92633 whole entry): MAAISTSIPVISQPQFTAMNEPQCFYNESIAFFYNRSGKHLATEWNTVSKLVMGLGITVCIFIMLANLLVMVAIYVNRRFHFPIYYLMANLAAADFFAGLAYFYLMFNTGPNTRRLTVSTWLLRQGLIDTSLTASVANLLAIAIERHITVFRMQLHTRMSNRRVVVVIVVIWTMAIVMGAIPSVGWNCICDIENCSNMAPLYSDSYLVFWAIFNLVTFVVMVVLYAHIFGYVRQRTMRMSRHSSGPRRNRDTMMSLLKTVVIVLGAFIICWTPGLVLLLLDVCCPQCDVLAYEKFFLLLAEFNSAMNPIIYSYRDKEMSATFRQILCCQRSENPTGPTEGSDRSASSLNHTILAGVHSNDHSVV
Experimental: The effectiveness of compounds of the present invention as LPA1 antagonist can be determined at the human recombinant LPA1 expressed in CHO cells, using a FLIPR assay in 384 well format.
CHO-hLPA1 cell lines are cultured in a humidified incubator at 5% CO2 in DMEM/F-12 (1:1) MIXTURE with 2 mM Glutamax, supplemented with 10% of Foetal Bovine Serum, 1 mM Sodium Pyruvate, 11 mM Hepes and 1× Penicillin/Streptomycin. CHO hLPA1 cells are seeded into black walled clear-bottom 384-well plates (#781091, Greiner Bio-One GmbH) at a density of 7,500 cells per well in 50 μl culture media and grown overnight in a 37° C. humidified CO2-incubator. Serial dilutions (1:3 or 1:4, 11 points CRC) of compounds are performed in 100% DMSO at 200× the final concentration. The compounds are diluted 1:50 prior to the experiment with Assay Buffer (20 mM HEPES, 145 mM NaCl, 5 mM KCl, 5.5 mM glucose, 1 mM MgCl2 and 2 mM CaCl2), pH 7.4 containing 0.01% Pluronic F-127) to obtain a solution corresponding to […] the final concentration in the assay (4×, 2% DMSO). The final concentration of DMSO in the assay will be 0.5% in each well. Medium is removed by aspiration and cells are then incubated with 30 μl of a loading solution containing 5 μM of the cytoplasmic Ca2+ indicator Cal-520 AM in Assay Buffer containing 2.5 mM probenecid for 30 min at 37° C. incubator (cell loading). The loaded cell plates are transferred into the FLIPR instrument and calcium responses are monitored during the on-line addition protocols. For testing of compounds, after the cell loading, 10 μl/well of 4× antagonists' solution was added onto the cells. After 30 min pre-incubation (at 37° C.), 10 μl/well of 5× concentrated LPA EC80 was added and Ca2+ mobilization responses was followed during the on-line addition protocol. Intracellular peak fluorescence values subtracted by baseline fluorescence are exported and analysed to determine IC50 values, respectively. The calcium response is expressed as percentage of the maximal inhibition of the EC80 agonist response.
The raw data obtained in unstimulated controls (DMSO, no LPA) are set as “100% inhibition”, while the raw data obtained in negative controls, i.e. in the absence of compounds and stimulating with LPA EC80, are set as “0% inhibition”.
The raw data (peak height expressed as relative fluorescence units) are normalized and transformed into “percent of inhibition”. Curve fitting and pIC50 (−Log IC50) estimations are carried out using a four-parameter logistic model using XLfit Software.

SMILES	IC50
Cc1nc(-c2onc(C)c2CNc2nccc(-c3cccnc3)n2)ccc1NC(=O)[C@@H]1[C@@H](C(=O)O)C1(F)F [Compound 25, (1S,3S)-2,2-difluoro-3-((2-methyl-6-(3-methyl-4-(((4-(pyridin-3-yl)pyrimidin-2-yl)amino)methyl)isoxazol-5-yl)pyridin-3-yl)carbamoyl)cyclopropane-1-carboxylic acid]	< 50 nM
C[C@@H](OC(=O)Nc1c(-c2ccc(NC(=O)[C@@H]3[C@@H](C(=O)O)C3(F)F)cc2)nnn1C)c1ccccc1Cl [Compound 35, (1S,3S)-3-((4-(5-((((R)-1-(2-chlorophenyl)ethoxy)carbonyl)amino)-1-methyl-1H-1,2,3-triazol-4-yl)phenyl)carbamoyl)-2,2-difluorocyclopropane-1-carboxylic acid]	< 50 nM
C[C@@H](OC(=O)Nc1cn(C)nc1-c1ccc(NC(=O)[C@@H]2[C@@H](C(=O)O)C2(F)F)cc1)c1ccccc1Cl [Compound 38, (1S,3S)-3-((4-(4-((((R)-1-(2-chlorophenyl)ethoxy)carbonyl)amino)-1-methyl-1H-pyrazol-3-yl)phenyl)carbamoyl)-2,2-difluorocyclopropane-1-carboxylic acid]	100 to 200 nM
Cc1nc(-c2onc(C)c2NC(=O)O[C@H](C)c2ccccc2Cl)ccc1NC(=O)C1C(c2noc(=O)[nH]2)C1(F)F (stereo partly drawn) [Compound 42, (R)-1-(2-chlorophenyl)ethyl (5-(5-(2,2-difluoro-3-(5-oxo-4,5-dihydro-1,2,4-oxadiazol-3-yl)cyclopropane-1-carboxamido)-6-methylpyridin-2-yl)-3-methylisoxazol-4-yl)carbamate]	< 50 nM

Now from value to compound:

IC50	SMILES
100 to 200 nM	C[C@@H](OC(=O)Nc1cccn1-c1ccc(NC(=O)[C@@H]2[C@@H](C(=O)O)C2(F)F)cc1)c1ccccc1Cl [Compound 39]
100 to 200 nM	C[C@@H](OC(=O)Nc1ncoc1-c1ccc(NC(=O)[C@@H]2[C@@H](C(=O)O)C2(F)F)cc1)c1ccccc1Cl [Compound 40, methyl (1S,3S)-3-((4-(4-((((R)-1-(2-chlorophenyl)ethoxy)carbonyl)amino)oxazol-5-yl)phenyl)carbamoyl)-2,2-difluorocyclopropane-1-carboxlic acid]
< 50 nM	Cc1nc(-c2onc(C)c2NC(=O)O[C@H](C)c2ccccc2Cl)ccc1NC(=O)C1C(c2noc(=S)[nH]2)C1(F)F (stereo partly drawn) [Compound 41, (R)-1-(2-chlorophenyl)ethyl (5-(5-(2,2-difluoro-3-(5-thioxo-4,5-dihydro-1,2,4-oxadiazol-3-yl)cyclopropane-1-carboxamido)-6-methylpyridin-2-yl)-3-methylisoxazol-4-yl)carbamate]
< 50 nM	Cc1nc(-c2onc(C)c2NC(=O)O[C@H](C)c2ccccc2Cl)ccc1NC(=O)C1C(c2nsc(=O)[nH]2)C1(F)F (stereo partly drawn) [Compound 43, (R)-1-(2-chlorophenyl)ethyl (5-(5-(2,2-difluoro-3-(5-oxo-4,5-dihydro-1,2,4-thiadiazol-3-yl)cyclopropane-1-carboxamido)-6-methylpyridin-2-yl)-3-methylisoxazol-4-yl)carbamate]
50 to 100 nM	Cc1nc(-c2onc(C)c2NC(=O)O[C@H](C)c2ccccc2Cl)ccc1NC(=O)[C@@H]1[C@@H](c2n[nH]c(=S)n2C)C1(F)F [Compound 44, (R)-1-(2-chlorophenyl)ethyl (5-(5-((1S,3S)-2,2-difluoro-3-(4-methyl-5-thioxo-4,5-dihydro-1H-1,2,4-triazol-3-yl)cyclopropane-1-carboxamido)-6-methylpyridin-2-yl)-3-methylisoxazol-4-yl)carbamate]
